Test results published in EP4786487A1, “PEPTIDE” (Peptidream Inc, priority 2023, dated 2025).
pIC50: −log10 of the molar value. Positions of bridges follow the written chain, without caps; N, C: chain ends. Non-standard residues stand in square brackets, D forms with d. Residues, ends and D or L forms follow the SMILES beside them. *: point of attachment. Phe(4-(4-pyridyl)) = N[C@@H](Cc1ccc(-c2ccncc2)cc1)C(=O)O; Phe(3-OCH2COOH) = N[C@@H](Cc1cccc(OCC(=O)O)c1)C(=O)O; Phe(3-CONH2) = NC(=O)c1cccc(C[C@H](N)C(=O)O)c1; Phe(4-CONH2) = NC(=O)c1ccc(C[C@H](N)C(=O)O)cc1; Phe(4-COOH) = N[C@@H](Cc1ccc(C(=O)O)cc1)C(=O)O; Trp(7-aza) = N[C@@H](Cc1c[nH]c2ncccc12)C(=O)O; Gly(Nα-CH2CH2CONH2) = NC(=O)CCNCC(=O)O; Gly(N(CH2)3COOH) = O=C(O)CCCNCC(=O)O; NMeF = CN[C@@H](Cc1ccccc1)C(=O)O; 3Pal = N[C@@H](Cc1cccnc1)C(=O)O; 4Pal = N[C@@H](Cc1ccncc1)C(=O)O; Carboxymethyl = O=C(O)C*; NMeA = CN[C@@H](C)C(=O)O; Sar = CNCC(=O)O

Legend:
Assay type in all cases: cell-based
Myostatin [1] = molecular target: T1, Myostatin (Homo sapiens, UniProt O14793); test: Reporter gene assay for myostatin signaling in HepG2 cell line, Evaluation Procedure (1), myostatin inhibition; conditions: Method A: Myostatin 10 ng/mL; read-out: IC50 (Luciferase) Myostatin HepG2
T1 construct: active myostatin (also called mature myostatin) is a homodimer consisting of two C-terminal growth factor domains; purchased R&D systems 788-G8/CF
T1 sequence (O14793 267-375): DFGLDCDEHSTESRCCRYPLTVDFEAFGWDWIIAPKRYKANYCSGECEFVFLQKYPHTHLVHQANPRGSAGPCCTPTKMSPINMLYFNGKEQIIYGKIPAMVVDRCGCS
Protocol: (§1) In this Example, the in vitro myostatin inhibitory effects of the peptides synthesized in Examples 1 and 2 were evaluated using a reporter gene assay for myostatin signaling in HepG2 cell line.
(§2) HepG2 cell line (HB-8065, ATCC) cultured in EMEM (055-08975, WAKO Industries) containing 10% FBS (10270106, Gibco) and 50 µg/mL gentamicin (11980-14, Nacalai Tesque) was seeded in 96-well plates (167008, Thermo) at 2.0 × 10^4 cells/well and incubated in a CO2 incubator (37°C, 5% CO2) for 24 hours. The pGL3(CAGA)12-luc plasmid, namely a pGL3 vector (E1751, Promega) having a luciferase gene inserted downstream of a promoter sequence with 12 CAGA repeats attached, was added to the wells along with a transfection reagent (X-treamGENE9 DNA Transfection Reagent, 6365809001, Roche) at a concentration of 0.04 µg/well. The cell line was cultured in a CO2 incubator (37°C, 5% CO2) for 24 hours for transfection. The medium was discarded and replaced with EMEM containing 50 µL/well of 0.1% bovine serum albumin (A7030, Sigma) and 50 µg/mL gentamicin, and incubated in a CO2 incubator (37°C, 5% CO2) for 2 hours.
(§3) Myostatin (788-G8/C, R&D systems) or GDF-11 (1958-GD-G8/CF, R&D systems) was added so that the final concentrations were those listed in Table 5.
(§4) A 4-fold dilution series of various peptides synthesized in Examples 1 and 2 was added to achieve 0.006-100 nmol/L (myostatin inhibition) and 0.12-2000 nmol/L (GDF-11 inhibition). At this time, blank wells, in which neither myostatin, GDF-11, nor each peptide was added, were also prepared and incubated in a CO2 incubator (37°C, 5% CO2) for 20 to 24 hours.
(§5) The medium containing the cells was removed, and a mixture containing PBS (14190144, Thermo) and a chromogenic substrate One-Glo Luciferase Assay System (E6120, Promega) at a ratio of 1:1 was added to each well at 100 µL/well. This was stirred with a plate shaker for 5 min and transferred to a 384-well plate (3570, Corning) at a volume of 20 µL/well.
(§6) The plate was centrifuged at 1,000 × g for 1 min and the luminescence signal (700 nm luminescence) was measured using a plate reader (Envision 2104, PerkinElmer). Based on the measured values, IC50 values of the peptides were calculated using software (Prism 9, GraphPad). […]
(§7) In this Example, the in vitro myostatin inhibitory effects of the peptides synthesized in Examples 10 and 11 were evaluated according to the Evaluation Procedure (1) in Example 3.

Myostatin [2] = test: as above; conditions: Method A; GDF-11 IC50 versus Myostatin IC50
Protocol: as §1, §2, §3, §4, §5, §6, §7

GDF-11 = molecular target: T2, GDF-11 (Homo sapiens, UniProt O95390); test: Reporter gene assay for myostatin signaling in HepG2 cell line, Evaluation Procedure (1), GDF-11 inhibition; conditions: Method A: GDF-11 10 ng/mL; read-out: IC50 (Luciferase) GDF-11 HepG2
T2 construct: purchased R&D systems 1958-GD-G8/CF
T2 sequence (O95390 299-407): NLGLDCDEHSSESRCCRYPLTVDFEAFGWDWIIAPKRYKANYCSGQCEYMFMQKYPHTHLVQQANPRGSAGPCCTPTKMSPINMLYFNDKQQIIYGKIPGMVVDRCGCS
Protocol: as §1, §2, §3, §4, §5, §6, §7

Compound	pIC50 (Myostatin [1])	pIC50 (GDF-11)	Selectivity (Myostatin [2])
CC[C@H](C)[C@@H]1NC(=O)[C@H](Cc2ccccc2)N(C)C(=O)[C@H](Cc2ccc(O)cc2)NC(=O)[C@H](Cc2c[nH]c3ncccc23)NC(=O)[C@H](C)NC(=O)CN(CCCC(=O)O)C(=O)CSC[C@H](C(=O)O)NC(=O)[C@H](Cc2ccccc2)N(C)C(=O)[C@H](C)N(C)C(=O)[C@H](CC(C)C)NC(=O)[C@H](Cc2ccccc2)N(C)C(=O)[C@H](CCCNC(=N)N)NC(=O)[C@H](Cc2ccc(C(=O)O)cc2)NC(=O)[C@H](Cc2ccccc2)NC(=O)CN(C)C1=O [Myostatin_99_Variant_20-OH] ({CH2CO}-[Gly(N(CH2)3COOH)]A[Trp(7-aza)]Y[NMeF]I[Sar]F[Phe(4-COOH)]R[NMeF]L[NMeA][NMeF][dC]-OH; thioether N-15)	7.35	5.70	45
CC[C@H](C)[C@@H]1NC(=O)[C@H](Cc2ccccc2)N(C)C(=O)[C@H](Cc2ccc(O)cc2)NC(=O)[C@H](Cc2c[nH]c3ncccc23)NC(=O)[C@H](C)NC(=O)CN(CCCC(=O)O)C(=O)CSC[C@H](C(=O)O)NC(=O)[C@H](Cc2ccccc2)N(C)C(=O)[C@H](C)N(C)C(=O)[C@H](CC(C)C)NC(=O)[C@H](Cc2ccccc2)N(C)C(=O)[C@H](CCCNC(=N)N)NC(=O)[C@H](Cc2ccc(C(=O)O)cc2)NC(=O)[C@H](Cc2ccncc2)NC(=O)CN(C)C1=O [Myostatin_99_Variant_21-OH] ({CH2CO}-[Gly(N(CH2)3COOH)]A[Trp(7-aza)]Y[NMeF]I[Sar][4Pal][Phe(4-COOH)]R[NMeF]L[NMeA][NMeF][dC]-OH; thioether N-15)	6.97	5.36	41
CC[C@H](C)[C@@H]1NC(=O)[C@H](Cc2ccccc2)N(C)C(=O)[C@H](Cc2ccc(O)cc2)NC(=O)[C@H](Cc2c[nH]c3ncccc23)NC(=O)[C@H](C)NC(=O)CN(CCCC(=O)O)C(=O)CSC[C@H](C(=O)NCC(=O)N[C@H](CCC(=O)O)C(=O)NCC(=O)N[C@H](CCCCN)C(=O)O)NC(=O)[C@H](Cc2ccccc2)N(C)C(=O)[C@H](C)N(C)C(=O)[C@H](CC(C)C)NC(=O)[C@H](Cc2ccccc2)N(C)C(=O)[C@H](CCCNC(=N)N)NC(=O)[C@H](Cc2ccc(C(=O)O)cc2)NC(=O)[C@H](Cc2ccncc2)NC(=O)CN(C)C1=O [Myostatin_99_v31] ({CH2CO}-[Gly(N(CH2)3COOH)]A[Trp(7-aza)]Y[NMeF]I[Sar][4Pal][Phe(4-COOH)]R[NMeF]L[NMeA][NMeF][dC]G[dE]G[dK]-OH; thioether N-15)	7.26	5.87	25
CC[C@H](C)[C@@H]1NC(=O)[C@H](Cc2ccccc2)N(C)C(=O)[C@H](Cc2ccc(O)cc2)NC(=O)[C@H](Cc2c[nH]c3ncccc23)NC(=O)[C@H](C)NC(=O)CN(CCCC(=O)O)C(=O)CSC[C@H](C(=O)O)NC(=O)[C@H](Cc2ccccc2)N(C)C(=O)[C@H](C)N(C)C(=O)[C@H](CC(C)C)NC(=O)[C@H](Cc2ccccc2)N(C)C(=O)[C@H](CCCNC(=N)N)NC(=O)[C@H](Cc2cccnc2)NC(=O)[C@H](Cc2ccccc2)NC(=O)CN(C)C1=O [Myostatin_99_v41] ({CH2CO}-[Gly(N(CH2)3COOH)]A[Trp(7-aza)]Y[NMeF]I[Sar]F[3Pal]R[NMeF]L[NMeA][NMeF][dC]-OH; thioether N-15)	7.20	5.79	26
CC[C@H](C)[C@@H]1NC(=O)[C@H](Cc2ccccc2)N(C)C(=O)[C@H](Cc2ccc(O)cc2)NC(=O)[C@H](Cc2c[nH]c3ncccc23)NC(=O)[C@H](C)NC(=O)CN(CCC(N)=O)C(=O)CSC[C@H](C(=O)O)NC(=O)[C@H](Cc2ccccc2)N(C)C(=O)[C@H](C)N(C)C(=O)[C@H](CC(C)C)NC(=O)[C@H](Cc2ccccc2)N(C)C(=O)[C@H](CCCNC(=N)N)NC(=O)[C@H](Cc2ccc(C(=O)O)cc2)NC(=O)[C@H](Cc2ccccc2)NC(=O)CN(C)C1=O [Myostatin_99_v46] ({CH2CO}-[Gly(Nα-CH2CH2CONH2)]A[Trp(7-aza)]Y[NMeF]I[Sar]F[Phe(4-COOH)]R[NMeF]L[NMeA][NMeF][dC]-OH; thioether N-15)	7.36	5.81	36

Compounds with a higher pIC50 (Myostatin [1]), results first:

pIC50 (Myostatin [1])	pIC50 (GDF-11)	Compound	Selectivity (Myostatin [2])
7.48	5.70	CC[C@H](C)[C@@H]1NC(=O)[C@H](Cc2ccccc2)N(C)C(=O)[C@H](Cc2ccc(O)cc2)NC(=O)[C@H](Cc2c[nH]c3ncccc23)NC(=O)[C@H](C)NC(=O)CN(CCCC(=O)O)C(=O)CSC[C@H](C(=O)O)NC(=O)[C@H](Cc2ccccc2)N(C)C(=O)[C@H](C)N(C)C(=O)[C@H](CC(C)C)NC(=O)[C@H](Cc2ccccc2)N(C)C(=O)[C@H](CCCNC(=N)N)NC(=O)[C@H](Cc2ccc(OCC(=O)O)cc2)NC(=O)[C@H](Cc2ccccc2)NC(=O)CN(C)C1=O [Myostatin_99_v43] ({CH2CO}-[Gly(N(CH2)3COOH)]A[Trp(7-aza)]Y[NMeF]I[Sar]FY(Carboxymethyl)R[NMeF]L[NMeA][NMeF][dC]-OH; thioether N-15)	60
8.08	6.09	CC[C@H](C)[C@@H]1NC(=O)[C@H](Cc2ccccc2)N(C)C(=O)[C@H](Cc2ccc(O)cc2)NC(=O)[C@H](Cc2c[nH]c3ncccc23)NC(=O)[C@H](C)NC(=O)CN(CCCC(=O)O)C(=O)CSC[C@H](C(=O)O)NC(=O)[C@H](Cc2ccccc2)N(C)C(=O)[C@H](C)N(C)C(=O)[C@H](CC(C)C)NC(=O)[C@H](Cc2ccccc2)N(C)C(=O)[C@H](CCCNC(=N)N)NC(=O)[C@H](Cc2ccc(C(N)=O)cc2)NC(=O)[C@H](Cc2ccccc2)NC(=O)CN(C)C1=O [Myostatin_99_v44] ({CH2CO}-[Gly(N(CH2)3COOH)]A[Trp(7-aza)]Y[NMeF]I[Sar]F[Phe(4-CONH2)]R[NMeF]L[NMeA][NMeF][dC]-OH; thioether N-15)	96
7.89	6.48	CC[C@H](C)[C@@H]1NC(=O)[C@H](Cc2ccccc2)N(C)C(=O)[C@H](Cc2ccc(O)cc2)NC(=O)[C@H](Cc2c[nH]c3ncccc23)NC(=O)[C@H](C)NC(=O)CN(CCCC(=O)O)C(=O)CSC[C@H](C(=O)O)NC(=O)[C@H](Cc2ccccc2)N(C)C(=O)[C@H](C)N(C)C(=O)[C@H](CC(C)C)NC(=O)[C@H](Cc2ccccc2)N(C)C(=O)[C@H](CCCNC(=N)N)NC(=O)[C@H](Cc2cccc(C(N)=O)c2)NC(=O)[C@H](Cc2ccccc2)NC(=O)CN(C)C1=O [Myostatin_99_v45] ({CH2CO}-[Gly(N(CH2)3COOH)]A[Trp(7-aza)]Y[NMeF]I[Sar]F[Phe(3-CONH2)]R[NMeF]L[NMeA][NMeF][dC]-OH; thioether N-15)	26
7.68	5.52	CC[C@H](C)[C@@H]1NC(=O)[C@H](Cc2ccccc2)N(C)C(=O)[C@H](Cc2ccc(O)cc2)NC(=O)[C@H](Cc2ccc(-c3ccncc3)cc2)NC(=O)[C@H](C)NC(=O)CN(CCCC(=O)O)C(=O)CSC[C@H](C(=O)O)NC(=O)[C@H](Cc2ccccc2)N(C)C(=O)[C@H](C)N(C)C(=O)[C@H](CC(C)C)NC(=O)[C@H](Cc2ccccc2)N(C)C(=O)[C@H](CCCNC(=N)N)NC(=O)[C@H](Cc2ccc(OCC(=O)O)cc2)NC(=O)[C@H](Cc2cccc(OCC(=O)O)c2)NC(=O)[C@H](C)N(C)C1=O [Myostatin_99_v83] ({CH2CO}-[Gly(N(CH2)3COOH)]A[Phe(4-(4-pyridyl))]Y[NMeF]I[NMeA][Phe(3-OCH2COOH)]Y(Carboxymethyl)R[NMeF]L[NMeA][NMeF][dC]-OH; thioether N-15)	144
